Measurements: patent US12428403B2, “N-(heterocyclyl and heterocyclylalkyl)-3-benzylpyridin-2-amine derivatives as SSTR4 agonists” (Takeda Pharmaceutical Company Limited, priority 2020, dated 2025)

What was measured:
SSTR4 [1] = target: T1, SSTR4 (Homo sapiens, UniProt P31391); test: SSTR4 I-125 somatostatin competition binding assay (CHO-K1 membranes); set-up: host or cells: CHO-K1; details: competition with I-125 labeled somatostatin, membranes from CHO-K1 overexpressing SSTR4; read-out: SSTR4 Binding pIC50 (converted)
Text: SSTR4I-125 Somatostatin Competition Binding Assay
Membranes from CHO-K1 cells overexpressing SSTR4 are purchased from Perkin Elmer (catalog number ES-524-M400UA). […] The scintillator sheets are melted to filters using a heat block.

SSTR4 [2] = target: T1, SSTR4; test: cell-based
Method: This cell-based assay measures the ability of compounds to inhibit forskolin stimulated cAMP in CHO-K1 cells overexpressing SSTR4. CHO-K1 cells overexpressing SSTR4 (CHO-SSTR4) are purchased from DiscoveRx (product code 95-0059C2). The CHO-SSTR4 cells are maintained in F12K media with 10% Fetal Bovine Serum (Hyclone), 1% Pen/Strep (Life Technologies), and 800 μg/mL G418 (Life Technologies). To perform the assay, 3000 cells are plated per well in white 384-well plate (Corning 3570) in 50 complete media and the cells are allowed to attach for 16 hours in a 37° C., 5% CO2 incubator. The next day, the culture media is removed from the cells and the cells are washed (added then removed) with Krebs Ringer Buffer (ZenBio, KRB-1000 mL). Test compounds are suspended in DMSO and diluted in stimulation buffer: Krebs Ringer Buffer plus 0.5% BSA (Roche), 300 μM IBMX (Sigma), and 350 nM forskolin (Sigma). The cells are incubated in 10 μL compound/stimulation buffer for 30 minutes at room temperature. Cellular cAMP levels are detected with a HTRF LANCE Ultra cAMP kit (Perkin Elmer, catalog number TRF0264).
The assay is performed in accordance with the manufacturer's instructions. Five μL of diluted Eu-W8044 labeled streptavidin (dilution: 1:50 in cAMP Detection Buffer) is added to each well. Then 5 μL of diluted biotin cAMP (dilution: 1:150 in cAMP Detection Buffer) is added to each well. The plates are covered and allowed to incubate for 60 minutes at room temperature on a shaker. HTRF (665 nm/615 nm) is read on a Perkin Elmer ENVISION plate reader. The pEC50 values are generated using Activity Base for Screening Data Management.

SSTR1 = SSTR1 (Homo sapiens, UniProt P30872); test: biochemical;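 further: competitive binding to membranes of CHO-K1 cells overexpressing SSTR1, incubated 60 min at room temperature, radioactivity read by scintillation counting after filtration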
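Wherever EC50 is given: CHO-K1 cells overexpressing SSTR4, reduction of forskolin-driven cAMP after 30 min compound exposure at room temperature, cAMP read by HTRF LANCE Ultra kit.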
Method: SSTR1 I-125 Somatostatin Competition Binding Assay for Selectivity Versus SSTR1
Membranes from CHO-K1 cells overexpressing SSTR1 are purchased from Perkin Elmer (catalog number ES-520-M400UA). Test compounds are suspended in DMSO and then diluted in assay buffer (25 mM HEPES pH 7.4, 10 mM MgCl2, 1 mM CaCl2, 0.5% BSA) plus 0.4 nM I-125 labeled somatostatin (Perkin Elmer catalog number NEX389). […] Then 10 μg of SSTR1 membranes in 50 μL assay buffer are added per well. The plate is incubated for 60 minutes at room temperature. […] The contents of the assay plate are transferred to filters with a TomTech harvester and washed 5 times with 20 mM HEPES, 100 mM NaCl. […] The scintillator sheets are melted to the filters using a heat block. The filters are then read in a MicroBeta scintillation counter. Binding Ki curves are generated using Activity Base for Screening Data Management and the results are reported as pIC50.

T1 sequence (P31391 whole entry): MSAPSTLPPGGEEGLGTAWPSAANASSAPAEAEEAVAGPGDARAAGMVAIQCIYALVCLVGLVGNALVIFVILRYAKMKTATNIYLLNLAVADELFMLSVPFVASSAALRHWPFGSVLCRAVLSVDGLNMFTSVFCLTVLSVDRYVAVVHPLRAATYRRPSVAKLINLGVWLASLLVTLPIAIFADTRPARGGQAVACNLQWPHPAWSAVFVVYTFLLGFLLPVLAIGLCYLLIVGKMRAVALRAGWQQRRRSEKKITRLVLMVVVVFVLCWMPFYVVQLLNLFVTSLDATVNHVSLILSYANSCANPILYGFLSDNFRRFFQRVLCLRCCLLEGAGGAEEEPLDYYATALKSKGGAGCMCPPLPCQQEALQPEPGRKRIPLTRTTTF
Sequence of SSTR1 (P30872 whole entry): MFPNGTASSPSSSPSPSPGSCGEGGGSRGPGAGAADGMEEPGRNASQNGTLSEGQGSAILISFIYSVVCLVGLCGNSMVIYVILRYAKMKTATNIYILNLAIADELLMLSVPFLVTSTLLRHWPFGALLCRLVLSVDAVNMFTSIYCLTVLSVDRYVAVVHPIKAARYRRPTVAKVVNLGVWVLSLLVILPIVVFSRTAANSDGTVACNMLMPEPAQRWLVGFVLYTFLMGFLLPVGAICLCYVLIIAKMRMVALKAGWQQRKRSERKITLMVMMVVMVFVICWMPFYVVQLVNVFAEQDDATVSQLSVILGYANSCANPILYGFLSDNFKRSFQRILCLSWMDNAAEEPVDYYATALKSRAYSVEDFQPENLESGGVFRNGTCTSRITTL

Structure (SMILES) | IC50 (SSTR4 [1]) | EC50 (SSTR4 [2]) | IC50 (SSTR1)
Cc1nc(NCCN2CCCC2)c(C(C)c2ccc(F)cc2)nc1C(=O)NC1CC(F)(F)C1 (stereo not drawn) [Example 73, N-(3,3-difluorocyclobutyl)-6-(1-(4-fluorophenyl)ethyl)-3-methyl-5-((2-(pyrrolidin-1-yl)ethyl)amino)pyrazine-2-carboxamide] | 47.9 nM | 9.77 nM | 1100 nM
Cc1nc(Cc2ccc(F)cc2)c(NCCN2CCC2)nc1C [Example 78, N-(2-(azetidin-1-yl)ethyl)-3-(4-fluorobenzyl)-5,6-dimethylpyrazin-2-amine] | 77.6 nM | 12.6 nM | 28200 nM
Cc1nc(NCCN2CCC2)c(Cc2ccc(F)cc2)nc1C#N [Example 96, 5-((2-(azetidin-1-yl)ethyl)amino)-6-(4-fluorobenzyl)-3-methylpyrazine-2-carbonitrile] | 61.7 nM | 27.5 nM | 11000 nM
CC(c1ccc(F)cc1)c1nc(-c2ncco2)cnc1NCCN1CCCC1 (stereo not drawn) [Example 123, 3-(1-(4-fluorophenyl)ethyl)-5-(oxazol-2-yl)-N-(2-(pyrrolidin-1-yl)ethyl)pyrazin-2-amine] | 123 nM | 20.9 nM | 3310 nM
CC(c1ccc(F)cc1)c1nc(-c2nccn2C)cnc1NCCN1CCCC1 (stereo not drawn) [Example 124, 3-(1-(4-fluorophenyl)ethyl)-5-(1-methyl-1H-imidazol-2-yl)-N-(2-(pyrrolidin-1-yl)ethyl)pyrazin-2-amine] | 245 nM | 36.3 nM | 3470 nM
CC(c1ccc(F)cc1)c1nc(-c2nccs2)cnc1NCCN1CCCC1 (stereo not drawn) [Example 125, 3-(1-(4-fluorophenyl)ethyl)-N-(2-(pyrrolidin-1-yl)ethyl)-5-(thiazol-2-yl)pyrazin-2-amine] | 38 nM | 42.7 nM | 1230 nM
Cc1cnc(-c2cnc(NCCN3CCCC3)c(C(C)c3ccc(F)cc3)n2)o1 (stereo not drawn) [Example 126, 3-(1-(4-fluorophenyl)ethyl)-5-(5-methyloxazol-2-yl)-N-(2-(pyrrolidin-1-yl)ethyl)pyrazin-2-amine] | 110 nM | 29.5 nM | 2630 nM
Cc1cnc(-c2nc(C(C)c3ccc(F)cc3)c(NCCN3CCCC3)nc2C)o1 (stereo not drawn) [Example 129, 3-(1-(4-fluorophenyl)ethyl)-6-methyl-5-(5-methyloxazol-2-yl)-N-(2-(pyrrolidin-1-yl)ethyl)pyrazin-2-amine] | 35.5 nM | 10 nM | 2290 nM
Fc1ccc(Cc2nnc(C3CC3)nc2NCCN2CCC2)cc1 [Example 138, N-(2-(azetidin-1-yl)ethyl)-3-cyclopropyl-6-(4-fluorobenzyl)-1,2,4-triazin-5-amine] | 89.1 nM | 16.2 nM | 5010 nM
Cc1cccc(Cc2nnc(C)nc2NCCN2CCC2)c1 [Example 148, N-(2-(azetidin-1-yl)ethyl)-3-methyl-6-(3-methylbenzyl)-1,2,4-triazin-5-amine] | 42.7 nM | 10 nM | 15100 nM

Stronger by EC50 (SSTR4 [2]), values ahead:

IC50 (SSTR4 [1]) | EC50 (SSTR4 [2]) | IC50 (SSTR1) | Structure (SMILES)
135 nM | 8.71 nM | 2400 nM | Cc1nc(NCCN2CCCC2)c(C(C)c2ccc(F)cc2)nc1C(=O)N[C@H]1CCOC1 (stereo partly drawn) [Example 69, 6-(1-(4-fluorophenyl)ethyl)-3-methyl-5-((2-(pyrrolidin-1-yl)ethyl)amino)-N-((S)-tetrahydrofuran-3-yl)pyrazine-2-carboxamide]
151 nM | 8.71 nM | 12000 nM | CC(c1ccc(F)cc1)c1nccnc1NCCN1CCCC1 (stereo not drawn) [Example 119, 3-(1-(4-fluorophenyl)ethyl)-N-(2-(pyrrolidin-1-yl)ethyl)pyrazin-2-amine]
10.5 nM | 5.01 nM | 3720 nM | Cc1cccc(Cc2ncc(C(C)C)nc2NCCN2CCC2)c1 [Example 87, N-(2-(azetidin-1-yl)ethyl)-6-isopropyl-3-(3-methylbenzyl)pyrazin-2-amine]
31.6 nM | 4.27 nM | 2450 nM | CO[C@H]1C[C@H](NC(=O)c2nc(C(C)c3ccc(F)cc3)c(NCCN3CCCC3)nc2C)C1 (stereo partly drawn) [Example 71, 6-(1-(4-fluorophenyl)ethyl)-N-(trans-3-methoxycyclobutyl)-3-methyl-5-((2-(pyrrolidin-1-yl)ethyl)amino)pyrazine-2-carboxamide]
49 nM | 4.27 nM | 10000 nM | Cc1nnc(C(C)c2ccccc2)c(NCCN2CCC2)n1 (stereo not drawn) [Example 143, N-(2-(azetidin-1-yl)ethyl)-3-methyl-6-(1-phenylethyl)-1,2,4-triazin-5-amine]
36.3 nM | 4.17 nM | 3470 nM | Cc1nc(NCCN2CCCC2)c(C(C)c2ccc(F)cc2)nc1C(=O)N1CC[C@H](F)C1 (stereo partly drawn) [Example 66, (6-(1-(4-fluorophenyl)ethyl)-3-methyl-5-((2-(pyrrolidin-1-yl)ethyl)amino)pyrazin-2-yl)((S)-3-fluoropyrrolidin-1-yl)methanone]
64.6 nM | 3.39 nM | 4790 nM | CO[C@@H]1CCN(C(=O)c2nc(C(C)c3ccc(F)cc3)c(NCCN3CCCC3)nc2C)C1 (stereo partly drawn) [Example 72, (6-(1-(4-fluorophenyl)ethyl)-3-methyl-5-((2-(pyrrolidin-1-yl)ethyl)amino)pyrazin-2-yl)((R)-3-methoxypyrrolidin-1-yl)methanone]
63.1 nM | 3.24 nM | 4370 nM | Cc1nc(NCCN2CCCC2)c(C(C)c2ccc(F)cc2)nc1C(=O)N1CC[C@@H](F)C1 (stereo partly drawn) [Example 74, (6-(1-(4-fluorophenyl)ethyl)-3-methyl-5-((2-(pyrrolidin-1-yl)ethyl)amino)pyrazin-2-yl)((R)-3-fluoropyrrolidin-1-yl)methanone]
28.2 nM | 1.95 nM | 47900 nM | Cc1nnc(C(C)c2ccc(F)cc2)c(NCCN2CCC2)n1 (stereo not drawn) [Example 132, N-(2-(azetidin-1-yl)ethyl)-6-(1-(4-fluorophenyl)ethyl)-3-methyl-1,2,4-triazin-5-amine]
10 nM | 1.7 nM | 3630 nM | Cc1nc(NCCN2CCCC2)c(C(C)c2ccc(F)cc2)nc1C(=O)N(C)C(C)C (stereo not drawn) [Example 67, 6-(1-(4-fluorophenyl)ethyl)-N-isopropyl-N,3-dimethyl-5-((2-(pyrrolidin-1-yl)ethyl)amino)pyrazine-2-carboxamide]
31.6 nM | 0.676 nM | 3550 nM | CO[C@H]1CCN(C(=O)c2nc(C(C)c3ccc(F)cc3)c(NCCN3CCCC3)nc2C)C1 (stereo partly drawn) [Example 68, (6-(1-(4-fluorophenyl)ethyl)-3-methyl-5-((2-(pyrrolidin-1-yl)ethyl)amino)pyrazin-2-yl)((S)-3-methoxypyrrolidin-1-yl)methanone]
